Measured values: the NIST ThermoML archive (doi:10.1016/j.jct.2019.04.023)
± gives the expanded uncertainty stated by the source.

Assay: xn = mol fraction of the nth substance listed
Conditions: 101 kPa, Liquid; for viscosity: Falling or rolling sphere viscometry; for mass density: Vibrating tube method

With CC[N+](CC)=C(N(C)C)N(C)C.O=S(=O)([N-]S(=O)(=O)C(F)(F)F)C(F)(F)F + CO the viscosity (293.15 K, x1 = 0.0999) was 1.848 ± 0.078 mPa·s, the viscosity (293.15 K, x1 = 0.1984) was 4.046 ± 0.18 mPa·s and the viscosity (293.15 K, x1 = 0.3011) was 7.913 ± 0.36 mPa·s. It also gave a viscosity (293.15 K, x1 = 0.4008) of 13.15 ± 0.6 mPa·s, a viscosity (293.15 K, x1 = 0.5055) of 19.75 ± 0.9 mPa·s and a viscosity (293.15 K, x1 = 0.5916) of 26.14 ± 1.1 mPa·s. For the same compound, the viscosity (293.15 K, x1 = 0.712) was 37.44 ± 1.6 mPa·s, the viscosity (293.15 K, x1 = 0.7994) was 46.94 ± 1.9 mPa·s and the viscosity (293.15 K, x1 = 0.8995) was 61.78 ± 2.5 mPa·s. It also gave a viscosity (293.15 K, x1 = 1) of 81.02 ± 3.5 mPa·s, a mass density (293.15 K, x1 = 0.0999) of 1073.55 ± 3.2 kg/m3 and a mass density (293.15 K, x1 = 0.1984) of 1186.61 ± 3.2 kg/m3. The mass density (293.15 K, x1 = 0.3011) was 1249.9 ± 3.1 kg/m3, the mass density (293.15 K, x1 = 0.4008) was 1288.15 ± 3 kg/m3 and the mass density (293.15 K, x1 = 0.5055) was 1315.68 ± 3 kg/m3. It also gave a mass density (293.15 K, x1 = 0.5916) of 1332.42 ± 2.8 kg/m3, a mass density (293.15 K, x1 = 0.712) of 1350.19 ± 2.8 kg/m3 and a mass density (293.15 K, x1 = 0.7994) of 1360.11 ± 2.8 kg/m3. The mass density (293.15 K, x1 = 0.8995) was 1369.61 ± 2.8 kg/m3, the mass density (293.15 K, x1 = 1) was 1377.86 ± 2.8 kg/m3 and the viscosity (298.15 K, x1 = 0.0999) was 1.685 ± 0.071 mPa·s. For the same compound, the viscosity (298.15 K, x1 = 0.1984) was 3.569 ± 0.16 mPa·s, the viscosity (298.15 K, x1 = 0.3011) was 6.875 ± 0.31 mPa·s and the viscosity (298.15 K, x1 = 0.4008) was 11.36 ± 0.52 mPa·s. The viscosity (298.15 K, x1 = 0.5055) was 16.81 ± 0.76 mPa·s, the viscosity (298.15 K, x1 = 0.5916) was 22.03 ± 0.96 mPa·s and the viscosity (298.15 K, x1 = 0.712) was 30.94 ± 1.3 mPa·s. It also gave a viscosity (298.15 K, x1 = 0.7994) of 38.51 ± 1.6 mPa·s, a viscosity (298.15 K, x1 = 0.8995) of 49.75 ± 2 mPa·s and a viscosity (298.15 K, x1 = 1) of 65.01 ± 2.7 mPa·s. It also gave a mass density (298.15 K, x1 = 0.0999) of 1068.63 ± 3.2 kg/m3, a mass density (298.15 K, x1 = 0.1984) of 1181.69 ± 3.1 kg/m3 and a mass density (298.15 K, x1 = 0.3011) of 1245.05 ± 3.1 kg/m3. It also gave a mass density (298.15 K, x1 = 0.4008) of 1283.31 ± 3 kg/m3, a mass density (298.15 K, x1 = 0.5055) of 1310.86 ± 3 kg/m3 and a mass density (298.15 K, x1 = 0.5916) of 1327.63 ± 2.8 kg/m3. For the same compound, the mass density (298.15 K, x1 = 0.712) was 1345.44 ± 2.8 kg/m3, the mass density (298.15 K, x1 = 0.7994) was 1355.37 ± 2.8 kg/m3 and the mass density (298.15 K, x1 = 0.8995) was 1364.9 ± 2.8 kg/m3. It also gave a mass density (298.15 K, x1 = 1) of 1373.16 ± 2.8 kg/m3, a viscosity (303.15 K, x1 = 0.0999) of 1.538 ± 0.065 mPa·s and a viscosity (303.15 K, x1 = 0.1984) of 3.198 ± 0.14 mPa·s. For the same compound, the viscosity (303.15 K, x1 = 0.3011) was 6.03 ± 0.27 mPa·s, the viscosity (303.15 K, x1 = 0.4008) was 9.842 ± 0.45 mPa·s and the viscosity (303.15 K, x1 = 0.5055) was 14.47 ± 0.65 mPa·s. It also gave a viscosity (303.15 K, x1 = 0.5916) of 18.78 ± 0.81 mPa·s, a viscosity (303.15 K, x1 = 0.712) of 26.03 ± 1.1 mPa·s and a viscosity (303.15 K, x1 = 0.7994) of 32.26 ± 1.3 mPa·s. For the same compound, the viscosity (303.15 K, x1 = 0.8995) was 41.13 ± 1.7 mPa·s, the viscosity (303.15 K, x1 = 1) was 52.96 ± 2.1 mPa·s and the mass density (303.15 K, x1 = 0.0999) was 1063.71 ± 3.2 kg/m3. It also gave a mass density (303.15 K, x1 = 0.1984) of 1176.79 ± 3.1 kg/m3, a mass density (303.15 K, x1 = 0.3011) of 1240.23 ± 3.1 kg/m3 and a mass density (303.15 K, x1 = 0.4008) of 1278.51 ± 3 kg/m3. For the same compound, the mass density (303.15 K, x1 = 0.5055) was 1306.08 ± 3 kg/m3, the mass density (303.15 K, x1 = 0.5916) was 1322.88 ± 2.8 kg/m3 and the mass density (303.15 K, x1 = 0.712) was 1340.73 ± 2.7 kg/m3. For the same compound, the mass density (303.15 K, x1 = 0.7994) was 1350.68 ± 2.7 kg/m3, the mass density (303.15 K, x1 = 0.8995) was 1360.23 ± 2.8 kg/m3 and the mass density (303.15 K, x1 = 1) was 1368.51 ± 2.8 kg/m3. It also gave a viscosity (308.15 K, x1 = 0.0999) of 1.413 ± 0.059 mPa·s, a viscosity (308.15 K, x1 = 0.1984) of 2.949 ± 0.13 mPa·s and a viscosity (308.15 K, x1 = 0.3011) of 5.332 ± 0.24 mPa·s. The viscosity (308.15 K, x1 = 0.4008) was 8.651 ± 0.39 mPa·s, the viscosity (308.15 K, x1 = 0.5055) was 12.59 ± 0.56 mPa·s and the viscosity (308.15 K, x1 = 0.5916) was 16.22 ± 0.7 mPa·s. For the same compound, the viscosity (308.15 K, x1 = 0.712) was 22.2 ± 0.92 mPa·s, the viscosity (308.15 K, x1 = 0.7994) was 27.19 ± 1.1 mPa·s and the viscosity (308.15 K, x1 = 0.8995) was 34.31 ± 1.4 mPa·s. The viscosity (308.15 K, x1 = 1) was 43.84 ± 1.8 mPa·s, the mass density (308.15 K, x1 = 0.0999) was 1058.79 ± 3.2 kg/m3 and the mass density (308.15 K, x1 = 0.1984) was 1171.9 ± 3.1 kg/m3. For the same compound, the mass density (308.15 K, x1 = 0.3011) was 1235.43 ± 3.1 kg/m3, the mass density (308.15 K, x1 = 0.4008) was 1273.73 ± 3 kg/m3 and the mass density (308.15 K, x1 = 0.5055) was 1301.33 ± 3 kg/m3. The mass density (308.15 K, x1 = 0.5916) was 1318.16 ± 2.8 kg/m3, the mass density (308.15 K, x1 = 0.712) was 1336.05 ± 2.7 kg/m3 and the mass density (308.15 K, x1 = 0.7994) was 1346.03 ± 2.7 kg/m3. For the same compound, the mass density (308.15 K, x1 = 0.8995) was 1355.6 ± 2.8 kg/m3, the mass density (308.15 K, x1 = 1) was 1363.9 ± 2.8 kg/m3 and the viscosity (313.15 K, x1 = 0.0999) was 1.296 ± 0.054 mPa·s. The viscosity (313.15 K, x1 = 0.1984) was 2.613 ± 0.11 mPa·s, the viscosity (313.15 K, x1 = 0.3011) was 4.749 ± 0.21 mPa·s and the viscosity (313.15 K, x1 = 0.4008) was 7.645 ± 0.34 mPa·s. For the same compound, the viscosity (313.15 K, x1 = 0.5055) was 11.05 ± 0.49 mPa·s, the viscosity (313.15 K, x1 = 0.5916) was 14.12 ± 0.61 mPa·s and the viscosity (313.15 K, x1 = 0.712) was 19.15 ± 0.8 mPa·s. For the same compound, the viscosity (313.15 K, x1 = 0.7994) was 23.25 ± 0.96 mPa·s, the viscosity (313.15 K, x1 = 0.8995) was 29.05 ± 1.2 mPa·s and the viscosity (313.15 K, x1 = 1) was 36.79 ± 1.5 mPa·s. It also gave a mass density (313.15 K, x1 = 0.0999) of 1053.86 ± 3.2 kg/m3, a mass density (313.15 K, x1 = 0.1984) of 1167.01 ± 3.1 kg/m3 and a mass density (313.15 K, x1 = 0.3011) of 1230.63 ± 3.1 kg/m3. The mass density (313.15 K, x1 = 0.4008) was 1268.96 ± 3 kg/m3, the mass density (313.15 K, x1 = 0.5055) was 1296.6 ± 3 kg/m3 and the mass density (313.15 K, x1 = 0.5916) was 1313.46 ± 2.8 kg/m3. For the same compound, the mass density (313.15 K, x1 = 0.712) was 1331.4 ± 2.7 kg/m3, the mass density (313.15 K, x1 = 0.7994) was 1341.4 ± 2.7 kg/m3 and the mass density (313.15 K, x1 = 0.8995) was 1351 ± 2.7 kg/m3. The mass density (313.15 K, x1 = 1) was 1359.32 ± 2.8 kg/m3, the viscosity (318.15 K, x1 = 0.0999) was 1.2 ± 0.05 mPa·s and the viscosity (318.15 K, x1 = 0.1984) was 2.362 ± 0.1 mPa·s. For the same compound, the viscosity (318.15 K, x1 = 0.3011) was 4.261 ± 0.19 mPa·s, the viscosity (318.15 K, x1 = 0.4008) was 6.815 ± 0.31 mPa·s and the viscosity (318.15 K, x1 = 0.5055) was 9.775 ± 0.43 mPa·s. It also gave a viscosity (318.15 K, x1 = 0.5916) of 12.43 ± 0.53 mPa·s, a viscosity (318.15 K, x1 = 0.712) of 16.69 ± 0.69 mPa·s and a viscosity (318.15 K, x1 = 0.7994) of 20.12 ± 0.83 mPa·s. It also gave a viscosity (318.15 K, x1 = 0.8995) of 24.89 ± 1 mPa·s, a viscosity (318.15 K, x1 = 1) of 31.25 ± 1.3 mPa·s and a mass density (318.15 K, x1 = 0.0999) of 1048.89 ± 3.2 kg/m3. The mass density (318.15 K, x1 = 0.1984) was 1162.1 ± 3.1 kg/m3, the mass density (318.15 K, x1 = 0.3011) was 1225.81 ± 3.1 kg/m3 and the mass density (318.15 K, x1 = 0.4008) was 1264.19 ± 3 kg/m3. The mass density (318.15 K, x1 = 0.5055) was 1291.87 ± 3 kg/m3, the mass density (318.15 K, x1 = 0.5916) was 1308.77 ± 2.8 kg/m3 and the mass density (318.15 K, x1 = 0.712) was 1326.77 ± 2.7 kg/m3. For the same compound, the mass density (318.15 K, x1 = 0.7994) was 1336.79 ± 2.7 kg/m3, the mass density (318.15 K, x1 = 0.8995) was 1346.42 ± 2.7 kg/m3 and the mass density (318.15 K, x1 = 1) was 1354.76 ± 2.8 kg/m3. The viscosity (323.15 K, x1 = 0.0999) was 1.114 ± 0.046 mPa·s, the viscosity (323.15 K, x1 = 0.1984) was 2.157 ± 0.094 mPa·s and the viscosity (323.15 K, x1 = 0.3011) was 3.854 ± 0.17 mPa·s. It also gave a viscosity (323.15 K, x1 = 0.4008) of 6.126 ± 0.27 mPa·s, a viscosity (323.15 K, x1 = 0.5055) of 8.704 ± 0.38 mPa·s and a viscosity (323.15 K, x1 = 0.5916) of 10.98 ± 0.47 mPa·s. The viscosity (323.15 K, x1 = 0.712) was 14.66 ± 0.61 mPa·s, the viscosity (323.15 K, x1 = 0.7994) was 17.56 ± 0.72 mPa·s and the viscosity (323.15 K, x1 = 0.8995) was 21.56 ± 0.88 mPa·s. It also gave a viscosity (323.15 K, x1 = 1) of 26.79 ± 1.1 mPa·s, a mass density (323.15 K, x1 = 0.0999) of 1043.89 ± 3.2 kg/m3 and a mass density (323.15 K, x1 = 0.1984) of 1157.19 ± 3.1 kg/m3. For the same compound, the mass density (323.15 K, x1 = 0.3011) was 1221 ± 3 kg/m3, the mass density (323.15 K, x1 = 0.4008) was 1259.42 ± 3 kg/m3 and the mass density (323.15 K, x1 = 0.5055) was 1287.15 ± 2.9 kg/m3. For the same compound, the mass density (323.15 K, x1 = 0.5916) was 1304.09 ± 2.8 kg/m3, the mass density (323.15 K, x1 = 0.712) was 1322.14 ± 2.7 kg/m3 and the mass density (323.15 K, x1 = 0.7994) was 1332.18 ± 2.7 kg/m3. The mass density (323.15 K, x1 = 0.8995) was 1341.85 ± 2.7 kg/m3 and the mass density (323.15 K, x1 = 1) was 1350.21 ± 2.7 kg/m3.
